Results: US20260034161A1, “2-HYDROXYPROPYL-BETA-CYCLODEXTRIN AS A CANCER THERAPY NEOADJUVANT OR ADJUVANT” (University of the Witwatersrand, Johannesburg, priority 2022, published 2026)
Entries after “also recorded” stand apart in the source; their conditions may differ.

Key:
HT-29 cells [1] = test: HT-29 colorectal cancer xenograft in NOD/SCID mice: tumour size, weight, metastasis; type: in vivo; set-up: Tumour reduction / Tumour gain or reduction: concentration or dose not given beside the values; conditions: for Average tumour size / Average tumour weight: group average, 4 mice, 3 000 mg/kg HPβCD, 10 mg/kg OXAL, 30 mg/kg 5FU i.p.; for Tumour reduction: tumour size; for Tumour reduction / Tumour gain or reduction: as compared to the untreated group; for Tumour gain or reduction: tumour weight
Method: (§1) In order to investigate the in vivo application of HPβCD as an anti-cancer agent for colorectal cancer (CRC) using NOD/SCID mice, 24 NOD/SCID mice (5-8 weeks old) were injected with 4×10^6 HT-29 cells (suspended in 10% McCoy's media and 1×PBS), until tumours developed. Once tumours reached a size of 150-200 mm^3 (1-2 weeks), treatments (12 treatments in total for each group, however only up to 6 treatments for the OXAL treated group due to obvious toxicity) were given. Treatment groups consisted of 4 mice each and included a control group (injected with 1×PBS), a group treated with HPβCD, a group treated with Oxaliplatin (OXAL) only, a group treated with 5-Fluorouracil (5FU) only, a group treated with HPβCD and OXAL and lastly a group treated with HPβCD and 5FU. Mice were intraperitoneally injected with 3 000 mg/kg of HPβCD, 10 mg/kg of OXAL and 30 mg/kg of 5FU thrice a week for 4 weeks. For combination treatments HPβCD was administered with either 5FU or OXAL chemotherapy. Mice were weighed three times a week and averages were calculated to show per week weights. When mice were euthanized, serum was collected from whole blood samples and this was further used to test cholesterol levels, as well as Aspartate aminotransferase (AST) and Alanine aminotransferase (ALT) as a measure for liver toxicity. They were then perfused and all organs, including tumours, were harvested. All organs were snap frozen and stored at −80° C. Tumour samples were further stored in 10% neutral buffered formalin (4° C.) and RNA Later (−80° C.).

[2] = Serum cholesterol levels post treatment; type: in vivo, NOD/SCID mice
Method: as §1

[3] = tested on: multidrug resistance protein 1 (MDR1); test: Vybrant MDR assay (calcein AM retention); type: cell-based; conditions: HT-29 cells treated with the FOLFOX chemotherapy cocktail; 1 mM MβCD, 10 mM HPβCD; preliminary data
Method: To assess the multi-drug resistant potential of cells pre- and post-EMT, the Vybrant® MDR Assay Kit (ThermoFisher Scientific, USA) was employed. This assay relies on the administration of an appropriate multidrug resistance protein 1 (MDR1) substrate, calcein acetoxymethyl ester (calcein AM) where drug-efflux potential is assessed by measuring the levels of intracellular calcein fluorescence. 10 000 cells were seeded per well in a 96-black walled plate. Following the 2-hour treatment period, cells were incubated with 0.25 μM Calcein-AM for 30 minutes at 37° C. Following this, two PBS washes were completed, and PBS administered to each well to ascertain fluorescence intensity. The Victor Nivo multi-mode microplate reader (Perkin Elmer, USA) was utilised with the excitation maximum set to 494 nm and the emission maximum set to 517 nm.
This can be attributed to alterations in lipid-raft membrane structure resulting in translocation of MDR1 to detergent soluble fractions which affects basal ATPase activity. This consequently affects the efflux potential of the MDR1 transporter. […] Fluorescence intensity (RFU) was quantified using the Victor Nivo multi-mode microplate reader (Perkin Elmer, USA) with the excitation maximum set to 494 nm and the emission maximum set to 517 nm.

NMuMg cells [4] = test: RT-qPCR of cholesterol-related genes in NMuMg cells; conditions: NMuMg post-EMT
Method: Relative expression is presented as log 2 fold changes between conditions.
To delineate the molecular mechanism governing cholesterol-mediated EMT induction, RT-qPCR analysis of the major cholesterol-related genes were assessed in the NMuMg cell line. RNA was extracted using the Direct-Zol™ RNA MiniPrep kit (Zymo Research, Inqaba Biotec™, SA). RNA extraction was carried out as per the manufacturer's protocol. Total RNA of 1 μg was utilised for cDNA synthesis using the RevertAidFirst Strand cDNA Synthesis kit (Thermo Fisher Scientific, USA) and was carried out according to the manufacturer's protocol. qPCR was performed using the SensiFAST™ SYBR® No-ROX kit, utilising a 3-step cycle on the CFX96 Touch™ Real-Time PCR detection system (Bio-Rad).

[5] = Tolerability of treatments in tumour-bearing NOD/SCID mice; type: in vivo
Method: as §1

NMuMg cells [6] = test: Immunofluorescence of EMT markers E-cadherin and vimentin in NMuMg cells; type: cell-based, mouse
Method: (§2) Three different mechanisms of action were used to induce EMT in breast and colorectal adenocarcinoma cell lines. Breast cancer MCF-7 cells were treated with 150 micromolar (μM) cobalt chloride (CoCl2) for 48 hours. Initially, a working stock solution of 2500 μM COCl2 was prepared by dilution in distilled water. The resulting solution was further diluted upon administration to cells cultured in cell culture media. Cell culture media composition: Dulbecco's Modified Eagle's Medium (DMEM) (Sigma Aldrich, UK) supplemented with 10% foetal bovine serum (FBS) (Celtic Molecular Diagnostics, SA) and 1% Penicillin-Streptomycin (Sigma Aldrich, UK). NMuMg cells (a normal mouse mammary cell line) were treated with 10 nanograms/millilitre of transforming growth factor beta 1 (TGF-β) for 48 hours. A stock solution of TGF-β was prepared by reconstituting 2 μg of recombinant TGF-β at 20 μg/mL in sterile 4 mM HCl containing 1 mg/mL of bovine serum albumin (BSA) diluted in water. NMuMG cells were cultured in Dulbecco's Modified Eagle Medium (DMEM) (ThermoFisher Scientific, USA), supplemented with 10% FBS, 1% Penicillin-Streptomycin, 1% GlutaMAX, and 10 μg/mL insulin. Colorectal cancer HT-29 cells were treated with 50 nanograms/millilitre of interleukin-6 (IL-6) for 24 hours. A working stock solution of 1 micrograms/millilitre of IL-6 was prepared by dilution in 0.1% BSA in phosphate-buffered saline (PBS). The resulting solution was further diluted upon administration to cells cultured in cell culture media. […]
(§3) Protein expression of EMT molecular markers in control and CoCl2, TGF-β and IL-6 treated cells was detected by employing immunofluorescence microscopy. […] E-cadherin expression was detected by Alexa Fluor 488 staining (green) while nuclei were stained with DAPI (blue) (FIG. 1). Vimentin expression was detected by Texas Red staining (red) while nuclei were stained with DAPI (blue) (FIG. 2). […]
(§4) Methyl-β-cyclodextrin (MβCD) was employed as a positive control, as it is a well-documented cholesterol depletory agent. […] Immunofluorescence intensity was quantified by utilising the ImageJ software (NIH, USA). Cells of interest and background fluorescence was analysed by considering the following parameters: area, integrated density and mean grey value. Corrected total cellular fluorescence was calculated as follows: CTCF=Integrated Density−(Area of selected cell×Mean fluorescence of background readings).
(§5) The protein expression of E-cadherin following treatment with various cholesterol targeting agents in MCF-7, NMuMg, and HT-29 cells, pre- and post-EMT induction was investigated. E-cadherin expression was determined by Alexa Fluor 488 staining (green) while nuclei were stained with DAPI (blue). […]

MCF-7 cells = test: Immunofluorescence of EMT markers E-cadherin and vimentin in MCF-7 cells; type: cell-based
Method: as §2, §3, §4, §5

HT-29 cells [7] = test: Immunofluorescence of EMT markers E-cadherin and vimentin in HT-29 cells; type: cell-based
Method: as §2, §3, §4, §5

[8] = Toxicity of HPβCD compared to simvastatin
[9] = Serum AST and ALT as a measure of liver toxicity; conditions: mouse, in vivo
Method: as §1, with “When mice were euthanized, serum was collected from whole blood samples and this was further used to test cholesterol levels, as well as Aspartate aminotransferase (AST) and Alanine aminotransferase (ALT) as a measure for liver toxicity. They were then perfused and all organs, including tumours, were harvested. All organs were snap frozen and stored at −80° C. Tumour samples were further stored in 10% neutral buffered formalin (4° C.) and RNA Later (−80° C.).” left out
Blood was collected post euthanization and serum was analysed for AST and ALT levels using the IDEXX Catalyst DX Chemistry Analyzer. […]

[10] = 10 ng/mL TGF-β for 48 hours vs control
[11] = MCF-7, post-EMT (CoCl2), 2-hour treatment, 10 mM HPβCD, 1 mM MβCD
[12] = post-EMT (TGF-β), 2-hour treatment, 10 mM HPβCD, 1 mM MβCD
[13] = HT-29, post-EMT (IL-6), 2-hour treatment, 10 mM HPβCD, 1 mM MβCD
[14] = HT-29, 50 ng/mL IL-6 for 24 hours vs control
[15] = MCF-7, 150 μM CoCl2 for 48 hours vs control

In the case of `O=c1[nH]cc(F)c(=O)[nH]1` [5FU, 5-Fluorouracil], the Average tumour size (HT-29 cells [1]) is reported as 841.4 mm^3, the Average tumour weight (HT-29 cells [1]) is reported as 1.4475 g and the Tumour reduction (HT-29 cells [1]) is reported as -65.1%. For the same molecule, the Tumour gain or reduction (HT-29 cells [1]) was -55% and the “serum cholesterol levels (in words)” value [2] was “significantly higher”.
In the case of Methyl-β-cyclodextrin [MβCD], the “intracellular retention of fluorescent calcein” value [3] is reported as “increase” and the “effect on cholesterol biosynthesis and influx (gene expression)” value (NMuMg cells [4]; 1 mM MβCD for 2 hours) is reported as “more significant effect”.
With `O=C1[O][Pt]2([NH][C@@H]3CCCC[C@H]3[NH]2)[O]C1=O` [OXAL, Oxaliplatin] the Average tumour size (HT-29 cells [1]) was 1413 mm^3, the Average tumour weight (HT-29 cells [1]) was 1.6975 g and the metastasis at dissection (HT-29 cells [1]; mouse, in vivo) was “metastasis almost throughout the body in one mouse”. The Tumour reduction (HT-29 cells [1]) was -41.3%, the Tumour gain or reduction (HT-29 cells [1]) was -47.2% and the “unexpected death of mice in treatment group” value ([5]; 6 treatments of OXAL alone, 10 mg/kg i.p.) was 50%. For the same molecule, the “health outcome of treated mice” value ([5]; OXAL alone 6 treatments, OXAL with HPβCD all 12 treatments of the same dose) was 2 died and 2 had to be euthanized and the “serum cholesterol levels (in words)” value [2] was “significantly higher”.
With “transforming growth factor beta 1 [TGF-β]” the “E-cadherin expression following EMT induction” value (NMuMg cells [6]; [10]) was “significantly decreased” and the “Vimentin expression following EMT induction” value (NMuMg cells [6]; [10]) was “significantly increased”.
In the case of 2-hydroxypropyl-β-cyclodextrin [HPβCD], the “E-cadherin expression (immunofluorescence)” value (MCF-7 cells; [11]) is reported as “increase”, the “vimentin expression (immunofluorescence)” value (MCF-7 cells; [11]) is reported as “decrease” and the “E-cadherin expression (immunofluorescence)” value (NMuMg cells [6]; [12]) is reported as “increase”. For the same molecule, the “vimentin expression (immunofluorescence)” value (NMuMg cells [6]; [12]) was “decrease”, the “E-cadherin expression (immunofluorescence)” value (HT-29 cells [7]; [13]) was “increase” and the “vimentin expression (immunofluorescence)” value (HT-29 cells [7]; [13]) was “decrease”. For the same molecule, the “intracellular retention of fluorescent calcein” value [3] was “increase”, the “toxicity compared to simvastatin” value [8] was “low toxicity” and the “average reduction in tumour size” value (HT-29 cells [1]; 3 000 mg/kg HPβCD i.p.) was roughly 17%. The “tumour size, visually” value (HT-29 cells [1]; FIG. 9) was “reduced”, the Average tumour size (HT-29 cells [1]) was 1983 mm^3 and the Average tumour weight (HT-29 cells [1]) was 3.5125 g. For the same molecule, the Tumour reduction (HT-29 cells [1]) was -17.6%, the Tumour gain or reduction (HT-29 cells [1]) was 9.17% and the “effect of HPβCD on toxicity of the co-administered chemotherapy” value ([5]; 3 000 mg/kg HPβCD i.p. with OXAL or 5FU) was “decreased the toxicity of OXAL; also recorded: reduced toxicity of OXAL; also recorded: reduce toxicity related to 5FU”. The “average level of serum cholesterol” value ([2]; untreated average 51 mg/dL) was 65.5 mg/dL, the “AST:ALT ratio” value [9] was 1.67 U/L and the “liver toxicity (in words)” value [9] was “no observed liver toxicity”. The “effect on cholesterol efflux (gene expression)” value (NMuMg cells [4]; 10 mM HPβCD, 10 μM simvastatin for 2 hours) was “drastically affected”.
For interleukin-6 [IL-6], the “E-cadherin expression following EMT induction” value (HT-29 cells [7]; [14]) was “significantly decreased” and the “Vimentin expression following EMT induction” value (HT-29 cells [7]; [14]) was “significantly increased”.
With `[Cl][Co][Cl]` [CoCl2, cobalt chloride] the “E-cadherin expression following EMT induction” value (MCF-7 cells; [15]) was “significantly decreased” and the “Vimentin expression following EMT induction” value (MCF-7 cells; [15]) was “significantly increased”.
